Measured values as given in US20260048051A1, “TREATMENT OF INFLAMMATORY BOWEL DISEASE” (Atomwise Inc., priority 2024, published 2026).

Molecular target: T1, TYK2-JH2 (Homo sapiens, UniProt P29597)
T1 construct: TYK JH2 enzyme mix (ChemPartner: CP20210818A-BV); purchased ChemPartner CP20210818A-BV
Test: TYK2-JH2 HTRF binding assay (ligand efficiency)
Details: calculated from binding-assay IC50 (Equation 1)
In short: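 HTRF competition binding: 0.5 nM His-tagged TYK2 JH2 preincubated 10 min at room temperature with compound (final 0.1 to 0.000005 μM), then 35 nM tracer and anti-6HIS Tb cryptate added for 60 min. Buffer 20 mM HEPES pH 7.5, 10 mM MgCl2, 0.01% Triton X-100, 1 mM DTT; TR-FRET Ex340/Em495/520. Ligand efficiency derived from binding IC50.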

T1 sequence (P29597 589-875 limits assumed): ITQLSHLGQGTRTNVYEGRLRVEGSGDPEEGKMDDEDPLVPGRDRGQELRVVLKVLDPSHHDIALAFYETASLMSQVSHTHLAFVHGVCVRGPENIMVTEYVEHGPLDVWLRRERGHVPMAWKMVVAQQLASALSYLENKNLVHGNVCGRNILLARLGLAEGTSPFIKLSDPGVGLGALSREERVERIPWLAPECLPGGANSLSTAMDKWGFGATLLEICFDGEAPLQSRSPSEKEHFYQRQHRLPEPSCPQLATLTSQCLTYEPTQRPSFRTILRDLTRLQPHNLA

In the case of C[C@@H](c1ccc(Nc2cc(Nc3ncccc3S(C)(=O)=O)ncn2)nc1)N1CC2(COC2)C1 [Compound 1, (S)—N^4-(5-(1-(2-oxa-6-azaspiro[3.3]heptan-6-yl)ethyl)pyridin-2-yl)-N^6-(3-(methylsulfonyl)pyridin-2-yl)pyrimidine-4,6-diamine], the “Ligand Efficiency” value is reported as “††† (†††: >0.39)”.

In the case of C[C@@H](c1ccc(Nc2cc(Nc3ncc(F)cc3S(C)(=O)=O)ncn2)nc1)N1CC2(COC2)C1 [Compound 2, (S)—N^4-(5-(1-(2-oxa-6-azaspiro[3.3]heptan-6-yl)ethyl)pyridin-2-yl)-N^6-(5-fluoro-3-(methylsulfonyl)pyridin-2-yl)pyrimidine-4,6-diamine], the “Ligand Efficiency” value is reported as “††† (†††: >0.39)”.
